One data set relates to Tetranychus urticae. Description: Tetranychus urticae spray test, OP-resistant (TETRUR). In kind it is in vivo. The conditions noted are these: application rate of 500 g/ha; after 6 days. As for the experimental part:
Tetranychus urticae—Spray Test, OP-Resistant (TETRUR)
• Solvent: 78.0 parts by weight of acetone • 1.5 parts by weight of dimethylformamide • Emulsifier: 0.5 part by weight of alkylaryl polyglycol ether
To produce an appropriate active ingredient formulation, 1 part by weight of active ingredient is mixed with the specified amounts of solvent and emulsifier, and the concentrate is diluted to the desired concentration with emulsifier-containing water.
Discs of bean leaves (Phaseolus vulgaris) infested by all stages of the greenhouse red spider mite (Tetranychus urticae) are sprayed with an active ingredient formulation of the desired concentration.
After 6 days, the efficacy in % is determined 100% means that all the spider mites have been killed; 0% means that none of the spider mites have been killed.

Data set [1] in a line: log P by HPLC (OECD Guideline 117), method [a] acidic range. In kind it is physicochemical. Particulars: HPLC, method [a] acidic range. As for the experimental part: (§1) The log P values were determined analogously to OECD Guideline 117 (EC Directive 92/69/EEC) by HPLC (high-performance liquid chromatography) using reversed-phase columns (C 18), by the following methods:
[a] The LC-MS determination in the acidic range is effected at pH 2.7 with 0.1% aqueous formic acid and acetonitrile (contains 0.1% formic acid) as eluents; linear gradient from 10% acetonitrile to 95% acetonitrile.

A short description of data set [2]: log P by HPLC (OECD Guideline 117), method [b] neutral range. It is filed as physicochemical. The conditions noted are these: HPLC, method [b] neutral range. How it is done: as §1
[b] The LC-MS determination in the neutral range is effected at pH 7.8 with 0.001 molar aqueous ammonium hydrogencarbonate solution and acetonitrile as eluents; linear gradient from 10% acetonitrile to 95% acetonitrile.

Consider `Cc1cc(F)c(-n2nc(SCC3CC3)n(C)c2=O)cc1[S+]([O-])CC(F)(F)F` (racemic) [Example 280], for which the efficacy with Tetranychus urticae turned out to be 100%. Besides, the “logP[a]” value in data set [1] amounted to 2.82. Besides, in data set [2], the “logP[b]” value worked out at 2.75.
In the data set with Tetranychus urticae, `Cc1cc(F)c(-n2ncn(C(C)(C)C)c2=O)cc1[S+]([O-])CC(F)(F)F` (stereo not drawn) [Example 369] gave an efficacy of 100%. Moreover, in data set [1], the “logP[a]” value was 2.21. Also, the “logP[b]” value in data set [2] came to 2.16.
The compound `Cc1cc(F)c(-n2nc(OC3CCCCC3)n(C)c2=O)cc1[S+]([O-])CC(F)(F)F` (stereo not drawn) [Example 164] gave an efficacy with Tetranychus urticae of 90%. Further, in data set [1], the “logP[a]” value stood at 3.29. Also, the “logP[b]” value in data set [2] turned out to be 3.22.
The matching figures for `O=c1n(-c2cc([S+]([O-])CC(F)(F)F)c(Cl)cc2F)nc(OCC(F)(F)F)n1C1CC1` (racemic) [Example 382]: 100%, 3.22 and 3.13.
With `COC1=CC(=O)N(c2ccc(C)c(SCC(F)(F)F)c2)C1` [Example 316], the efficacy in the data set on Tetranychus urticae came to 90%. For the same compound, in data set [1], the “logP[a]” value came out at 2.98. The “logP[b]” value in data set [2] came out at 2.95.
The matching figures for `Cc1cc(F)c(-n2nc(C(F)(F)F)n(C3CC3)c2=O)cc1SCC(F)(F)F` [Example 59]: 100%, 3.97 and 3.91.
In the data set on Tetranychus urticae, `CSc1nn(-c2cc([S+]([O-])CC(F)(F)F)c(C)cc2F)c(=O)n1C` (stereo not drawn) [Example 260] yielded an efficacy of 100%. The “logP[a]” value in data set [1] is given as 2.07. Besides, the “logP[b]” value in data set [2] was found to be 2.03.
For `CC[S+]([O-])c1nn(-c2cc(SCC(F)(F)F)c(C)cc2F)c(=O)n1C1CC1` (stereo not drawn) [Example 234], the efficacy with Tetranychus urticae was 100%. Moreover, in data set [1], the “logP[a]” value was 2.68. Further, the “logP[b]” value in data set [2] amounted to 2.65.
For the compound `Cc1cc(F)c(-n2nc(Br)n(C(C)(C)C)c2=O)cc1SCC(F)(F)F` [Example 438], the efficacy in the data set on Tetranychus urticae came to 100%. Further, the “logP[a]” value in data set [1] is on record as 4.24. In addition, in data set [2], the “logP[b]” value is reported as 4.17.
As to `Cc1cc(F)c(-n2nc([S+]([O-])CC(F)F)n(C3CC3)c2=O)cc1[S+]([O-])CC(F)(F)F` (stereo not drawn) [Example 229], in the data set on Tetranychus urticae, the efficacy is reported as 90%. The “logP[a]” value in data set [1] came out at 2.10. Moreover, the “logP[b]” value in data set [2] stood at 2.07.
With `Cc1cc(F)c(-n2nc(OC(C)C)n(C)c2=O)cc1[S+]([O-])CC(F)(F)F` (stereo not drawn) [Example 166], the efficacy in the data set with Tetranychus urticae was 90%. The “logP[a]” value in data set [1] stood at 2.48. Further, the “logP[b]” value in data set [2] is listed as 2.44.
As to `CCCCc1nn(-c2cc(SCC(F)(F)F)c(C)cc2F)c(=S)n1C1CC1` [Example 495], the efficacy with Tetranychus urticae was determined as 100%. For the same compound, the “logP[a]” value in data set [1] came to 4.52. In addition, in data set [2], the “logP[b]” value is reported as 4.43.
The matching figures for `Cc1cc(F)c(-n2nc([S+](C)[O-])n(C)c2=O)cc1SCC(F)(F)F` (stereo not drawn) [Example 232]: 90%, 2.25 and 2.21.
For the compound `CCOCc1nn(-c2cc([S+]([O-])CC(F)(F)F)c(C)cc2F)c(=O)n1C1CC1` (racemic) [Example 74], the efficacy in the data set with Tetranychus urticae was 100%. In data set [1], the “logP[a]” value came to 2.31. Also, the “logP[b]” value in data set [2] stood at 2.25.
In the data set with Tetranychus urticae, `CCC(C)c1nn(-c2cc(SCC(F)(F)F)c(C)cc2F)c(=S)n1C1CC1` (stereo not drawn) [Example 499] displayed an efficacy of 90%. The “logP[a]” value in data set [1] is on record as 4.46. In data set [2], the “logP[b]” value is given as 4.39.
`C=CCn1c(SCC)nn(-c2cc([S+]([O-])CC(F)(F)F)c(C)cc2F)c1=O` (stereo not drawn) [Example 431] had an efficacy in the data set on Tetranychus urticae of 90%. Also, the “logP[a]” value in data set [1] was determined as 2.83. Also, the “logP[b]” value in data set [2] was found to be 2.92.
The matching figures for `CC(C)(C)COc1nn(-c2cc([S+]([O-])CC(F)(F)F)c(Cl)cc2F)c(=O)n1C1CC1` (stereo not drawn) [Example 402]: 90%, 4.13 and 3.98.
In turn, `CCOc1nn(-c2cc([S+]([O-])CC(F)(F)F)c(C)cc2F)c(=O)n1CC` (stereo not drawn) [Example 409] returned an efficacy in the data set with Tetranychus urticae of 90%. For the same compound, the “logP[a]” value in data set [1] came to 2.44. In addition, in data set [2], the “logP[b]” value is 2.44.
Compound `Cc1cc(F)c(-n2nc(N(C)C)n(N)c2=O)cc1[S+]([O-])CC(F)(F)F` (stereo not drawn) [Example 221] came in with an efficacy in the data set with Tetranychus urticae of 100%. Besides, the “logP[a]” value in data set [1] was 1.63. Besides, in data set [2], the “logP[b]” value is listed as 1.60.
With `CCC[S+]([O-])c1nn(-c2cc([S+]([O-])CC(F)(F)F)c(C)cc2F)c(=O)n1C1CC1` (stereo not drawn) [Example 237], the efficacy with Tetranychus urticae came to 100%. For the same compound, the “logP[a]” value in data set [1] amounted to 2.14. The “logP[b]” value in data set [2] was 2.08.
Consider `COC1=CC(=O)N(c2cc([S+]([O-])CC(F)(F)F)c(Cl)cc2Cl)C1` (racemic) [Example 314], for which the efficacy in the data set with Tetranychus urticae was 100%. In data set [1], the “logP[a]” value was determined as 2.24. Besides, the “logP[b]” value in data set [2] is reported as 2.23.
The matching figures for `C=CCn1c([S+]([O-])CC)nn(-c2cc([S+]([O-])CC(F)(F)F)c(C)cc2F)c1=O` (stereo not drawn) [Example 424]: 90%, 2.05 and 2.04.
`Cc1cc(F)c(-n2ncn(-c3ccccc3)c2=O)cc1[S+]([O-])CC(F)(F)F` (racemic) [Example 357] displayed an efficacy in the data set on Tetranychus urticae of 90%. Moreover, the “logP[a]” value in data set [1] turned out to be 2.38. For the same compound, in data set [2], the “logP[b]” value is 2.36.
In turn, `Cc1cc(F)c(-n2nc(SCC(F)(F)F)n(C3CC3)c2=O)cc1SCC(F)(F)F` [Example 254] returned an efficacy with Tetranychus urticae of 90%. In data set [1], the “logP[a]” value came to 3.89. Moreover, the “logP[b]” value in data set [2] is on record as 3.84.
The matching figures for `COCc1nn(-c2cc([S+]([O-])CC(F)(F)F)c(C)cc2F)c(=O)n1N` (stereo not drawn) [Example 207]: 100%, 1.47 and 1.45.
Consider `Cc1cc(F)c(-n2nc(C(F)(F)F)n(CC(F)(F)F)c2=O)cc1SCC(F)(F)F` [Example 55], for which, in the data set with Tetranychus urticae, the efficacy is recorded as 90%. In addition, the “logP[a]” value in data set [1] came out at 4.22. Moreover, the “logP[b]” value in data set [2] is listed as 4.11.
As to `Cc1cc(F)c(-n2nc(OC3CCCCC3)n(C)c2=O)cc1SCC(F)(F)F` [Example 153], in the data set on Tetranychus urticae, the efficacy stood at 100%. The “logP[a]” value in data set [1] was 4.50. In addition, the “logP[b]” value in data set [2] came to 4.44.
With `Cc1cc(F)c(-n2nc(Br)n(C3CC3)c2=O)cc1SCC(F)(F)F` [Example 294], the efficacy in the data set with Tetranychus urticae is 100%. The “logP[a]” value in data set [1] worked out at 3.48. Besides, the “logP[b]” value in data set [2] was found to be 3.38.
The matching figures for `CCn1c(C(F)(F)F)nn(-c2cc([S+]([O-])CC(F)(F)F)c(C)cc2F)c1=O` (stereo not drawn) [Example 58]: 90%, 2.88 and 2.77.
The matching figures for `CCOc1nn(-c2cc([S+]([O-])CC(F)(F)F)c(C)cc2F)c(=O)n1C` (stereo not drawn) [Example 131]: 90%, 2.13 and 2.09.

The record behind these values is patent publication US9981940B2, “Aryl sulfide derivatives and aryl sulfoxide derivatives as acaricides and insecticides” (BAYER CROPSCIENCE AKTIENGESELLSCHAFT, priority 2013, dated 2018).
